The results in this text go back to publication PMC10887108, “Novel Brain-Penetrant, Small-Molecule Tubulin Destabilizers for the Treatment of Glioblastoma” (Biomedicines, 2024).

Series [1] in a line: Maximum tolerated dose study. It is filed as in vivo. The following applies: 25, 50, 100 or 200 mg/kg oral twice daily for 5 days + 5 days observation. The protocol: ; 6 mice per group, including vehicle control). One mouse from each group was euthanized for PK analysis at 6 h post-initial dose. The weight and physical states of the animals were monitored during the 5 days of treatment and for 5 days following drug administration. […]

Series [2] in a line: Brain pharmacokinetics after oral dosing. It is filed as in vivo. The following applies: 100 mg/kg oral, CD-1 mice, 1, 4 and 8 h. On the procedure:
Brain pharmacokinetic studies were carried out by DMPK at WuXi AppTec, Inc. (Cranbury, NJ, USA). The brain penetrance of RGN3067 was evaluated in three male CD-1 mice. RGN3067 was formulated as a 10 mg/mL solution (20% DMSO, 80% PEG400: PVP 95:5) and administered by oral gavage at a dose of 100 mg/kg. Plasma and brain samples were collected at 1, 4, and 8 h. Samples were analyzed by LC-MS/MS. A calibration curve was established using Waters ACQUITY UPLC BEH C18 column and formic acid in water and formic acid in acetonitrile as mobile phase. Tolbutamide and labetalol were used as internal standards for LC-MS/MS analysis. Compound was detected using electrospray ionization (ESI) positive detection. Pharmacokinetic parameters were calculated using the PO-noncompartmental linear model in Phoenix WinNonlin software v8.3 (Certara, Princeton, NJ, USA).

Consider `CO[C@H]1C[C@@H](C(=O)NC(=O)Nc2ccc(Oc3ccc(Cl)cn3)c(C)c2)C1` [RGN3067], for which, in series [1], the body weight loss result is “no statistically significant weight loss was observed”. In addition, the “distribution in plasma and brain” value in series [2] was “equal distribution in plasma and brain at all time points”.
